Source: patent US10017481B2, “Conformationally constrained, fully synthetic macrocyclic compounds” (POLYPHOR AG, priority 2012, dated 2018)

Legend:
Format in all cases: in vitro ADME
[1] = Plasma stability assay, human plasma; conditions: for Plasma Stability 240 min hum [% remain.]: human plasma, 10 μM, 37° C.
Method: (§1) 5. Plasma and Metabolic Stability Assays Example compounds were dissolved in DMSO/H2O 90:10 to a final concentration of 10 mM for plasma stability determination and metabolic stability determination. The assays were conducted according to literature precedents (F. P. Guengerich, Analysis and Characterization of Enzymes; in: Principles and Methods of Toxicology, A. W. Hayes (Ed.) Raven Press: New York, 1989, 777-813; R. Singh et al., In vitro metabolism of a potent HIV-protease inhibitor (141W94) using rat, monkey and human liver S9, Rapid Commun. Mass Spectrom. 1996, 10, 1019-1026). Plasma Stability Assay Human plasma (Blutspendedienst SRK, Basel) and CD-1 mouse plasma (mixed gender pool >50 animals, Innovative Research, Calif., USA) are both sodium citrate stabilized. The assay is performed in triplicates at 10 μM compound concentration and 37° C. Samples are taken at 0, 15, 30, 60, 120 and 240 minutes and stopped by precipitation with 3 volumes of acetonitrile/formic acid 98:2 and shaking (2 minutes, 600 rpm) followed by filtration (−20 mm Hg). The filtrate is collected. The filtrate (100 μL) is evaporated and reconstituted in the suitable solvent (cf. Table 33) to be analyzed by HPLC/MS/MS. The resulting peak area counts are expressed in percent of the 0 value and used to determine the endpoint stability in % and the half life T in minutes. In order to monitor assay integrity the degradation of propantheline is assayed with every experimental set.

[2] = Plasma stability assay, CD-1 mouse plasma; conditions: for Plasma Stability 240 min mouse/(rat) [% remain.]: CD-1 mouse plasma, 10 μM, 37° C.; for half-life at 10 μM: both sexes, CD-1, mouse
Method: as §1

[3] = Metabolic stability assay, human liver microsomes; conditions: for half-life at 10 μM: both sexes, liver microsomes, 1 mg/ml protein, read-out: Metabolic Stability T ½ [min] hum; for half-life at 10 μM / Metabolic Stability 60 min hum [% remain.]: human microsomes, 37° C., 10 μM
Method: (§2) 5. Plasma and Metabolic Stability Assays
(§3) Example compounds were dissolved in DMSO/H2O 90:10 to a final concentration of 10 mM for plasma stability determination and metabolic stability determination.
(§4) The assays were conducted according to literature precedents (F. P. Guengerich, Analysis and Characterization of Enzymes; in: Principles and Methods of Toxicology, A. W. Hayes (Ed.) Raven Press: New York, 1989, 777-813; R. Singh et al., In vitro metabolism of a potent HIV-protease inhibitor (141W94) using rat, monkey and human liver S9, Rapid Commun. Mass Spectrom. 1996, 10, 1019-1026).
(§5) Metabolic Stability Assay
(§6) Microsomes from a human 50 donor mixed gender pool and 1:1 mixtures of microsomes from CD-1 mouse single-gender pools are purchased from Celsis (Belgium). The enzymatic reaction is performed in a buffer containing an NADPH regeneration system and microsomes with the following end concentrations: 100 mM potassium phosphate buffer (all from Sigma), 1 mg/mL glucose-6-phosphate, 1 mg/mL β-nicotinamide adenine dinucleotide phosphate (NADP), 0.65 mg/mL magnesium chloride, 0.8 units/mL of glucose-6-phosphate dehydrogenase (prediluted with 5 mM citrate buffer), 10 μM compound and 1 mg/ml microsomal protein. Compounds are incubated at 37° C. in duplicates and samples are taken after 0, 5, 10, 20 and 60 minutes. After acetonitrile precipitation (3 volumes), shaking (2 minutes, 600 rpm) followed by centrifugation (10 minutes, 3200 g), the supernatant is dried reconstituted in the suitable solvent (cf. Table 33) and analyzed by HPLC/MS/MS. Metabolic turnover is expressed in % of the initial 0 minutes value and half life T½ (min) is calculated. Verapamil for human and propranolol for mouse are used as reference and are assayed with every experimental set.

[4] = Metabolic stability assay, CD-1 mouse microsomes; conditions: for Metabolic Stability 60 min mouse/(rat) [% remain.] / half-life at 10 μM: CD-1 mouse microsomes, 10 μM, 37° C.; for half-life at 10 μM: both sexes, 1 mg/ml protein, read-out: Metabolic Stability T ½ [min] mouse/(rat)
Method: as §2, §3, §4, §5, §6

Row | Plasma Stability 240 min hum [% remain.] [1] [% remain.] | half-life at 10 μM ([1]; human, plasma) [h] | Plasma Stability 240 min mouse/(rat) [% remain.] [2] [% remain.] | half-life at 10 μM ([2]; plasma) [h] | half-life at 10 μM [3] [min] | Metabolic Stability 60 min hum [% remain.] [3] [% remain.] | Metabolic Stability 60 min mouse/(rat) [% remain.] [4] [% remain.] | half-life at 10 μM [4] [min] | Plasma Stability T ½ [min] hum ([1]; human, plasma) [min] | Plasma Stability T ½ [min] mouse/(rat) ([2]; plasma) [min] | Metabolic Stability T ½ [min] hum ([3]; human, microsomes) [min] | Metabolic Stability T ½ [min] mouse/(rat) ([4]; microsomes) [min] | SMILES
1 |  |  |  |  |  |  |  |  | >240 | >240 | >60 | >60 | COc1ccc2c(c1)-c1cccc(c1)C(=O)N(C)[C@H](C(=O)N(C)CCN(C)C)CCC(=O)N[C@H](C)CO2 [Ex. 59, (10R15S)-N-[2-(dimethylamino)ethyl]-4-methoxy-N,10,16-trimethyl-12,17-dioxo-8-oxa-11,16-diazatricyclo[16.3.1.0^2,7]docosa-1(22),2,4,6,18,20-hexaene-15-carboxamide]
2 | 91 | > 4 | 45 | 3.33 | > 60 | 100 | 100 | > 60 |  |  |  |  | C[C@H]1COc2cccc(c2)-c2cccc(c2)C(=O)N(C)[C@H](C(=O)O)CCC(=O)N1 [Ex. 69, (9S,14S)-9,15-dimethyl-11,16-dioxo-7-oxa-10,15-diazatricyclo[15.3.1.1^2,6]docosa-1(21),2(22),3,5,17,19-hexaene-14-carboxylic acid]
3 | 99 | > 4 | 61 | > 4 | > 60 | 100 | 77 | > 60 |  |  |  |  | CNC(=O)[C@@H]1CCC(=O)N[C@@H](C)COc2cccc(c2)-c2cccc(c2)C(=O)N1C [Ex. 70, (9S,14S)-N,9,15-trimethyl-11,16-dioxo-7-oxa-10,15-diazatricyclo[15.3.1.1^2,6]docosa-1(21),2(22),3,5,17,19-hexaene-14-carboxamide]
4 | 100 | > 4 | 92 | > 4 | > 60 | 100 | 89 | > 60 |  |  |  |  | C[C@H]1COc2cccc(c2)-c2cccc(c2)C(=O)N(C)[C@H](C(N)=O)CCC(=O)N1 [Ex. 71, (9S,14S)-9,15-dimethyl-11,16-dioxo-7-oxa-10,15-diazatricyclo[15.3.1.1^2,6]docosa-1(21),2(22),3,5,17,19-hexaene-14-carboxamide]
5 | 100 | > 4 | 65 | > 4 | 22 | 14 | 30 | 35 |  |  |  |  | C[C@H]1COc2cccc(c2)-c2cccc(c2)C(=O)N(C)[C@H](C(=O)Nc2ccccc2)CCC(=O)N1 [Ex. 72, (9S,14S)-9,15-dimethyl-11,16-dioxo-N-phenyl-7-oxa-10,15-diazatricyclo[15.3.1.1^2,6] docosa-1(21),2(22),3,5,17,19-hexaene-14-carboxamide]

More lines, now with the values behind:

Row | SMILES | Plasma Stability 240 min hum [% remain.] [1] [% remain.] | half-life at 10 μM ([1]; human, plasma) [h] | Plasma Stability 240 min mouse/(rat) [% remain.] [2] [% remain.] | half-life at 10 μM ([2]; plasma) [h] | half-life at 10 μM [3] [min] | Metabolic Stability 60 min hum [% remain.] [3] [% remain.] | Metabolic Stability 60 min mouse/(rat) [% remain.] [4] [% remain.] | half-life at 10 μM [4] [min] | Plasma Stability T ½ [min] hum ([1]; human, plasma) [min] | Plasma Stability T ½ [min] mouse/(rat) ([2]; plasma) [min] | Metabolic Stability T ½ [min] hum ([3]; human, microsomes) [min] | Metabolic Stability T ½ [min] mouse/(rat) ([4]; microsomes) [min]
6 | COc1ccc2c(c1)-c1cccc(c1)C(=O)N(C)[C@H](C(=O)NCCN(C)C)CCC(=O)N[C@H](C)CO2 [Ex. 47, (10R,15S)-N-[2-(dimethylamino)ethyl]-4-methoxy-10,16-dimethyl-12,17-dioxo-8-oxa-11,16-diazatricyclo[16.3.1.0^2,7]docosa-1(22),2,4,6,18,20-hexaene-15-carboxamide] | 99 | > 4 | 86 | > 4 | > 60 | 83 | 100 | > 60 |  |  |  | 
7 | COc1ccc2c(c1)-c1cccc(c1)C(=O)N(C)[C@H](C(=O)NCCCN)CCC(=O)N[C@H](C)CO2 [Ex. 49, (10R,15S)-N-(3-aminopropyl)-4-methoxy-10,16-dimethyl-12,17-dioxo-8-oxa-11,16-diazatricyclo[16.3.1.0^2,7]docosa-1(22),2,4,6,18,20-hexaene-15-carboxamide] | 95 | > 4 | 76 | > 4 | > 60 | 100 | 92 | > 60 |  |  |  | 
8 | COCCNC(=O)[C@@H]1CCC(=O)N[C@H](C)COc2ccc(OC)cc2-c2cccc(c2)C(=O)N1C [Ex. 51, (10R,15S)-4-methoxy-N-(2-methoxyethyl)-10,16-dimethyl-12,17-dioxo-8-oxa-11,16-diazatricyclo[16.3.1.0^2,7]docosa-1(22),2,4,6,18,20-hexaene-15-carboxamide] | 100 | > 4 | 80 | > 4 | > 60 | 71 | 69 | > 60 |  |  |  | 
9 | COc1ccc2c(c1)-c1cccc(c1)C(=O)N(C)[C@H](C(=O)NC1CC1)CCC(=O)N[C@H](C)CO2 [Ex. 52, (10R,15S)-N-cyclopropyl-4-methoxy-10,16-dimethyl-12,17-dioxo-8-oxa-11,16-diazatricyclo[16.3.1.0^2,7]docosa-1(22),2,4,6,18,20-hexaene-15-carboxamide] | 99 | > 4 | 95 | > 4 | > 60 | 100 | 78 | > 60 |  |  |  | 
10 | COc1ccc2c(c1)-c1cccc(c1)C(=O)N(C)[C@H](C(=O)NCC(C)C)CCC(=O)N[C@H](C)CO2 [Ex. 54, (10R,15S)-N-isobutyl-4-methoxy-10,16-dimethyl-12,17-dioxo-8-oxa-11,16-diazatricyclo[16.3.1.0^2,7]docosa-1(22),2,4,6,18,20-hexaene-15-carboxamide] | 100 | > 4 | 100 | > 4 | > 60 | 60 | 82 | > 60 |  |  |  | 
11 | COc1ccc2c(c1)-c1cccc(c1)C(=O)N(C)[C@H](C(=O)NCC(=O)O)CCC(=O)N[C@H](C)CO2 [Ex. 57, 2-({[(10R,15S)-4-methoxy-10,16-dimethyl-12,17-dioxo-8-oxa-11,16-diazatricyclo[16.3.1.0^2,7]docosa-1(22),2,4,6,18,20-hexaen-15-yl]carbonyl}amino)acetic acid] | 100 | > 4 | 74 | > 4 | > 60 | 100 | 100 | > 60 |  |  |  | 
